The record followed here is US20030171218A1, “Substituted 3-heteroaryl(amino- or oxy)pyrrolidin-2-ones, their preparation and use as herbicides or plant growth regulators” (priority 2001, published 2003).

The test system of test [1] is weed plants such as Digitaria sanguinalis, Echinochloa crus-galli, Setaria faberi, Setaria viridis, Sorghum halepense, Abutilon theophrasti, Amaranthum …. As to the kind of experiment: Pre-emergence effect on weeds (greenhouse pot test). The class given is in vivo, monocotyledonous and dicotyledonous weed plants. As to conditions: application rate of 1 kg or less of active substance per hectare; scored visually after 3 to 4 weeks by comparison with untreated controls. The source says:
Seeds or rhizome pieces of monocotyledonous and dicotyledonous weed plants are placed in sandy loam soil in plastic pots and covered with soil. The compounds according to the invention which are formulated in the form of wettable powders or emulsion concentrates are then applied to the surface of the soil cover in the form of aqueous suspensions or emulsions at an application rate of 600 to 800 l of water/ha (converted), in various dosages.
After the treatment, the pots are placed in a greenhouse and kept under good growth conditions for the weeds. After the test plants have emerged, the damage to the plants or the negative effect on the emergence is scored visually after a test period of 3 to 4 weeks by comparison with untreated controls. As shown by the test results, compounds according to the invention have good herbicidal pre-emergence activity against a broad spectrum of weed grasses and broad-leafed weeds.

Test [2] concerns harmful plants such as Digitaria sanguinalis, Echinochloa crus-galli, Setaria faberi, Setaria viridis, Sorghum halepense, Abutilon theophrasti, Amaranthum …. As to the kind of experiment: Post-emergence effect on weeds (greenhouse pot test). To be noted: application rate of 1 kg and less of active substance per hectare; treated at three-leaf stage; scored visually after about 3 to 4 weeks by comparison with untreated controls. The class given is in vivo, monocotyledonous and dicotyledonous weeds. Here is the method: Seeds or rhizome pieces of monocotyledonous and dicotyledonous weeds are placed in sandy loam soil in plastic pots, covered with soil and grown in a greenhouse under good growth conditions. Three weeks after sowing, the test plants are treated at the three-leaf stage. The compounds according to the invention which were formulated as wettable powders or emulsion concentrates are sprayed, at various dosages, onto the green parts of the plants at an application rate of 600 to 800 l of water/ha (converted). After the test plants have remained in the greenhouse for about 3 to 4 weeks under optimum growth conditions, the effect of the preparations is scored visually by comparison with untreated controls. The agents according to the invention also have good herbicidal activity post-emergence against a broad spectrum of economically important weed grasses and broad-leafed weeds.

On to `Cc1cc(N2CCC(Nc3nc(N)nc(C(C)C)n3)C2=O)ccc1F` (stereo not shown) [Example A24], for which the herbicidal activity pre-emergence entry in test [1] is listed as “very good herbicidal activity”. Further, in test [2], the herbicidal activity post-emergence entry is on record as “very good herbicidal activity”.

As to `Cc1cc(N2CCC(Nc3nc(N)nc(C(C)F)n3)C2=O)ccc1F` (stereo not shown) [Example A15], the herbicidal activity pre-emergence result in test [1] was “very good herbicidal activity”. The herbicidal activity post-emergence entry in test [2] is recorded as “very good herbicidal activity”.

Turning to `Cc1cc(N2CCC(Nc3nc(N)nc(C(C)(C)F)n3)C2=O)ccc1F` (stereo not shown) [Example A29], the herbicidal activity pre-emergence result in test [1] is listed as “very good herbicidal activity”. The herbicidal activity post-emergence entry in test [2] is “very good herbicidal activity”.

As to `Cc1cc(N2CCC(Oc3nc(N)nc(C(C)F)n3)C2=O)ccc1F` (stereo not shown) [Example A40], the herbicidal activity pre-emergence result in test [1] is listed as “very good herbicidal activity”. The herbicidal activity post-emergence result in test [2] is listed as “very good herbicidal activity”.

Regarding `CC(C)(F)c1nc(N)nc(OC2CCN(C(C)(C)c3cccc(Cl)c3)C2=O)n1` (stereo not shown) [Example F3], the herbicidal activity pre-emergence entry in test [1] was “very good herbicidal activity”. Further, in test [2], the herbicidal activity post-emergence entry is “very good herbicidal activity”.

For `CC(C)(F)c1nc(N)nc(OC2CCN(c3cccc(F)c3)C2=O)n1` (stereo not shown) [Example A62], the herbicidal activity pre-emergence result in test [1] is “very good herbicidal activity”. Also, the herbicidal activity post-emergence entry in test [2] is “very good herbicidal activity”.

Regarding `Cc1cc(C)cc(N2CCC(Oc3nc(N)nc(C(C)F)n3)C2=O)c1` (stereo not shown) [Example A39], in test [1], the herbicidal activity pre-emergence result was “very good herbicidal activity”. The herbicidal activity post-emergence entry in test [2] is recorded as “very good herbicidal activity”.

As for `Cc1cc(N2CCC(Oc3nc(N)nc(C(C)(C)F)n3)C2=O)ccc1F` (stereo not shown) [Example A58], the herbicidal activity pre-emergence result in test [1] is reported as “very good herbicidal activity”. In addition, the herbicidal activity post-emergence entry in test [2] is “very good herbicidal activity”.

As for `CC(C)c1nc(N)nc(NC2CCN(c3cccc(F)c3)C2)n1` (stereo not shown) [Example E15], in test [1], the herbicidal activity pre-emergence entry is given as “very good herbicidal activity”. The herbicidal activity post-emergence result in test [2] is recorded as “very good herbicidal activity”.

On to `COc1cccc(N2CCC(Nc3nc(C)nc(N)n3)C2=O)c1` (stereo not shown) [Example A7], for which, in test [1], the herbicidal activity pre-emergence result is “very good herbicidal activity”. In test [2], the herbicidal activity post-emergence result is given as “very good herbicidal activity”.

For `Cc1cccc(N2CCC(Nc3nc(N)nc(C(C)C)n3)C2=O)c1` (stereo not shown) [Example A22], in test [1], the herbicidal activity pre-emergence result was “very good herbicidal activity”. The herbicidal activity post-emergence result in test [2] is listed as “very good herbicidal activity”.

Take `CC(F)c1nc(N)nc(OC2CCN(c3cccc(F)c3)C2=O)n1` (stereo not shown) [Example A44]: the herbicidal activity pre-emergence result in test [1] is “very good herbicidal activity”. In test [2], the herbicidal activity post-emergence result was “very good herbicidal activity”.

As to `Cc1cc(C)cc(N2CCC(Oc3nc(N)nc(C(C)(C)F)n3)C2=O)c1` (stereo not shown) [Example A57], in test [1], the herbicidal activity pre-emergence entry was “very good herbicidal activity”. The herbicidal activity post-emergence entry in test [2] was “very good herbicidal activity”.

In the case of `CC(C)(F)c1nc(N)nc(NC2CCN(c3cccc(OC(F)(F)F)c3)C2=O)n1` (stereo not shown) [Example A31], in test [1], the herbicidal activity pre-emergence entry is reported as “very good herbicidal activity”. Moreover, the herbicidal activity post-emergence entry in test [2] is reported as “very good herbicidal activity”.

On to `Cc1cc(N2CCC(Nc3nc(N)nc(C(C)(C)F)n3)C2)ccc1F` (stereo not shown) [Example E10], for which the herbicidal activity pre-emergence result in test [1] is on record as “very good herbicidal activity”. In addition, the herbicidal activity post-emergence result in test [2] was “very good herbicidal activity”.

Regarding `CC(F)c1nc(N)nc(N(C)C2CCN(c3cccc(C(F)(F)F)c3)C2)n1` (stereo not shown) [Example E57], the herbicidal activity pre-emergence result in test [1] is “very good herbicidal activity”. For the same molecule, in test [2], the herbicidal activity post-emergence result is given as “very good herbicidal activity”.

For the molecule `Cc1nc(N)nc(NC2CCN(c3cccc(Cl)c3)C2=O)n1` (stereo not shown) [Example A9], the herbicidal activity pre-emergence result in test [1] is recorded as “very good herbicidal activity”. Further, the herbicidal activity post-emergence result in test [2] is “very good herbicidal activity”.
